Data from patent publication US20130053381A1, “2,4-DIOXO-1,4-DIHYDRO-2H-QUINAZOLIN-3-YL-SULFONAMIDE DERIVATIVES” (NOVARTIS AG, priority 2010, published 2013).
Read-outs that look alike come from different tables or passages of the source.

Legend:
AMPA receptor = assay: [3H]CNQX binding test (AMPA-receptor binding); set-up: species or system rat; conditions: Table 2 parent compounds; rat; read-out: [3H]CNQX IC50 AMPA receptor binding, rat
Protocol: CNQX binding test (Honore et al. Biochem. Pharmacol. 1989, 38: 3207-3212). This test is performed as follows.
Brain membranes: The animals are sacrificed, the brain removed and homogenized in 10 volumes of ice-cold 10% sucrose with a glass/Teflon homogenizer at positions 5 for 30 sec. The membranes are centrifuged at 1000×g for 10 min, and the supernatant centrifuged at 20,000×g for 15 min. The resulting pellet is resuspended in 10 volumes of cold water with a tissue homogenizer (Brinkman Polytron) at position 5 for 15 sec and the suspension centrifuged at 8000×g for 10 min. The supernatant including the buffy layer is centrifuged at 40,000×g for 20 min, the pellet resuspended in 5 volumes of water and the suspension frozen (20-30 min in dry ice/MeOH) and thawed (water-bath at 37° C.) twice. The suspension is centrifuged at 40,000×g for 20 min, the pellet resuspended in 50 mM HEPES/KOH, pH 7.5, and centrifuged at 40,000×g for 10 min. The final pellet is resuspended with a glass/Teflon homogenizer in 5 volumes of HEPES/KOH buffer; 2 mL aliquots are frozen and stored in liquid nitrogen.
Pretreatment of membranes: Membranes are thawed at 35° C. and once washed with 50 mM HEPES/KOH by centrifugation at 39,000×g for 10 min. The final pellet is resuspended with a glass/Teflon homogenizer in the same buffer.
Radioligand binding assay: It is performed using 96-well microtiterplates in a volume of 0.3 mL of 50 mM HEPES/KOH, pH 7.2, 100 μg membrane protein, 5 nM [^3H]-CNQX (NEN) and the compound to be tested. Incubation is performed at 4° C. for 40 min and the reaction is terminated by centrifugation (Sigma 4K10) at 3700×g for 30 min. The pellet is washed once with cold buffer and then dissolved in 0.02 mL of the tissue solubilizer Soluene for 20 min. Two hundred μL of the scintillation fluid Microscint 20 (Packard) are added and the radioactivity is counted in a Packard Topcount scintillation counter at an efficiency of 40-45%. Nonspecific binding is defined by 10 μM CNQX. Assays are performed in triplicate.

OF1 mice = assay: Maximal electroshock test (MES Test); format: in vivo; conditions: Mus musculus, po, read-out: %-Protection; for responders at 50 mg/kg: p.o.
How it was run: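 Compound given p.o. (typically 50 mg/kg) 1 h before tonic-clonic convulsions were induced via temporal electrodes (50 Hz, 18 mA, 0.2 s); seizure lasting 3 s or less counted as protection. Read-out is percent protected of five mice per condition; ED50 calculated, blood exposure sampled after shock.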

SMILES	IC50 (AMPA receptor) [nM]	responders at 50 mg/kg (OF1 mice; pre-treatment time −1 h) [%]	responders at 25 mg/kg (OF1 mice; Dose: 25 mg/kg, p.o. (footnote b), pre-treatment time −1 h) [%]	responders at 50 mg/kg (OF1 mice; pre-treatment time −2 h (footnote a)) [%]	responders at 50 mg/kg (OF1 mice; pre-treatment time −0.5 h (footnote d)) [%]
CS(=O)(=O)Nn1c(=O)[nH]c2cc(C(F)(F)F)c(-n3cccc3)cc2c1=O [Example 8.0, N-(2,4-dioxo-6-pyrrol-1-yl-7-trifluoromethyl-1,4-dihydro-2H-quinazolin-3-yl)-methanesulfonamide]	162	40	–	–	–
CS(=O)(=O)Nn1c(=O)[nH]c2cc(C(F)(F)F)c([C@H]3CCCO3)cc2c1=O [Example 10.0, N—((R)-2,4-dioxo-6-tetrahydro-furan-2-yl-7-trifluoromethyl-1,4-dihydro-2H-quinazolin-3-yl)-methanesulfonamide]	159	100	–	–	0
CCC(OC)c1cc2c(=O)n(NS(C)(=O)=O)c(=O)[nH]c2cc1C(F)(F)F (stereo not drawn) [Example 11.0, N-[2,4-Dioxo-6-(1-methoxy-propyl)-7-trifluoromethyl-1,4-dihydro-2H-quinazolin-3-yl]-methanesulfonamide]	317	100	–	–	–
CCC(O)c1cc2c(=O)n(NS(C)(=O)=O)c(=O)[nH]c2cc1C(F)(F)F (stereo not drawn) [Example 12.0, N-[6-(1-hydroxy-propyl)-2,4-dioxo-7-trifluoromethyl-1,4-dihydro-2H-quinazolin-3-yl]-methanesulfonamide]	162	40	–	–	–
CCc1cc2[nH]c(=O)n(NS(C)(=O)=O)c(=O)c2cc1-c1ccnn1CC [Example 13.0, N-[7-ethyl-6-(2-ethyl-2H-pyrazol-3-yl)-2,4-dioxo-1,4-dihydro-2H-quinazolin-3-yl]-methanesulfonamide]	341	60	–	–	–

Stronger by IC50 (AMPA receptor), values ahead:

IC50 (AMPA receptor) [nM]	SMILES	responders at 50 mg/kg (OF1 mice; pre-treatment time −1 h) [%]	responders at 25 mg/kg (OF1 mice; Dose: 25 mg/kg, p.o. (footnote b), pre-treatment time −1 h) [%]	responders at 50 mg/kg (OF1 mice; pre-treatment time −2 h (footnote a)) [%]	responders at 50 mg/kg (OF1 mice; pre-treatment time −0.5 h (footnote d)) [%]
87	CC(C)n1nccc1-c1cc2c(=O)n(NS(C)(=O)=O)c(=O)[nH]c2cc1C(F)(F)F [Example 5.0, N-[6-(2-isopropyl-2H-pyrazol-3-yl)-2,4-dioxo-7-trifluoromethyl-1,4-dihydro-2H-quinazolin-3-yl]-methanesulfonamide]	80	–	–	–
110	CC(C)n1nccc1-c1cc2c(=O)n(NS(C)(=O)=O)c(=O)[nH]c2cc1C(F)F [Example 6.0, N-[7-difluoromethyl-6-(2-isopropyl-2H-pyrazol-3-yl)-2,4-dioxo-1,4-dihydro-2H-quinazolin-3-yl]-methanesulfonamide]	80	20	–	–
46	CS(=O)(=O)Nn1c(=O)[nH]c2cc(C(F)(F)F)c(-n3cnnc3)cc2c1=O [Example 9.0, N-(2,4-dioxo-6-[1,2,4]triazol-4-yl-7-trifluoromethyl-1,4-dihydro-2H-quinazolin-3-yl)-methanesulfonamide]	–	–	20	–
